Test results from ChEMBL document CHEMBL4196018, “New antitumor anthra[2,3-b]furan-3-carboxamides: Synthesis and structure-activity relationship” (Eur J Med Chem, 2018).
pIC50: −log10 of the molar value. Active and inactive are the calls of the source. No cut-off for these calls is given here.

Tested on: K562
Assay: Antiproliferative activity against human K562 cells after 72 hrs by MTT assay
Assay type: functional, cell-based
Settings: K562, 72 h

Compound	pIC50
Cc1oc2c(O)c3c(c(O)c2c1C(=O)N1CC[C@H](N)C1)C(=O)c1ccccc1C3=O	6.05
Cc1oc2c(Cl)c3c(c(Cl)c2c1C(=O)N1CC[C@H](N)C1)C(=O)c1ccccc1C3=O	5.42
COc1c2c(c(OC)c3c(C(=O)N4CC[C@H](N)C4)c(C)oc13)C(=O)c1ccccc1C2=O	4.54
NC1CCCN(C(=O)c2coc3c(O)c4c(c(O)c23)C(=O)c2ccccc2C4=O)C1 (racemic)	5.89
O=C1c2ccccc2C(=O)c2c1c(O)c1occ(C(=O)NC3CCNCC3)c1c2O	5.96
Cc1oc2c(N)c3c(c(N)c2c1C(=O)N1CC[C@H](N)C1)C(=O)c1ccccc1C3=O	5.04
O=C1c2ccccc2C(=O)c2c1c(O)c1occ(C(=O)NC3CCNC3)c1c2O (racemic)	6.05

Tested on: not listed separately
Assay: Antiproliferative activity against human K562/4 cells after 72 hrs by MTT assay
Assay type: functional, cell-based
Settings: K562/4, 72 h

Compound	pIC50
Cc1oc2c(O)c3c(c(O)c2c1C(=O)N1CC[C@H](N)C1)C(=O)c1ccccc1C3=O	5.85
Cc1oc2c(Cl)c3c(c(Cl)c2c1C(=O)N1CC[C@H](N)C1)C(=O)c1ccccc1C3=O	5.28
COc1c2c(c(OC)c3c(C(=O)N4CC[C@H](N)C4)c(C)oc13)C(=O)c1ccccc1C2=O	4.41
NC1CCCN(C(=O)c2coc3c(O)c4c(c(O)c23)C(=O)c2ccccc2C4=O)C1 (racemic)	5.59
O=C1c2ccccc2C(=O)c2c1c(O)c1occ(C(=O)NC3CCNCC3)c1c2O	5.60
Cc1oc2c(N)c3c(c(N)c2c1C(=O)N1CC[C@H](N)C1)C(=O)c1ccccc1C3=O	5.08
O=C1c2ccccc2C(=O)c2c1c(O)c1occ(C(=O)NC3CCNC3)c1c2O (racemic)	5.35

Tested on: HeLa
Assay: Antiproliferative activity against human HeLa cells after 72 hrs by MTT assay
Assay type: functional, cell-based
Settings: not given

Compound	pIC50
Cc1oc2c(O)c3c(c(O)c2c1C(=O)N1CC[C@H](N)C1)C(=O)c1ccccc1C3=O	6.15
Cc1oc2c(Cl)c3c(c(Cl)c2c1C(=O)N1CC[C@H](N)C1)C(=O)c1ccccc1C3=O	5.30
COc1c2c(c(OC)c3c(C(=O)N4CC[C@H](N)C4)c(C)oc13)C(=O)c1ccccc1C2=O	4.55
NC1CCCN(C(=O)c2coc3c(O)c4c(c(O)c23)C(=O)c2ccccc2C4=O)C1 (racemic)	5.64
O=C1c2ccccc2C(=O)c2c1c(O)c1occ(C(=O)NC3CCNCC3)c1c2O	5.96
Cc1oc2c(N)c3c(c(N)c2c1C(=O)N1CC[C@H](N)C1)C(=O)c1ccccc1C3=O	5.43
O=C1c2ccccc2C(=O)c2c1c(O)c1occ(C(=O)NC3CCNC3)c1c2O (racemic)	5.70

Tested on: not listed separately
Assay: Resistance index, ratio of IC50 for p53 knockout human HCT116 cells to IC50 for human HCT116 cells
Assay type: functional
Settings: not given

Compound	Ratio IC50
Cc1oc2c(O)c3c(c(O)c2c1C(=O)N1CC[C@H](N)C1)C(=O)c1ccccc1C3=O	1.1
Cc1oc2c(Cl)c3c(c(Cl)c2c1C(=O)N1CC[C@H](N)C1)C(=O)c1ccccc1C3=O	0.9
COc1c2c(c(OC)c3c(C(=O)N4CC[C@H](N)C4)c(C)oc13)C(=O)c1ccccc1C2=O	1.2
NC1CCCN(C(=O)c2coc3c(O)c4c(c(O)c23)C(=O)c2ccccc2C4=O)C1 (racemic)	0.8
O=C1c2ccccc2C(=O)c2c1c(O)c1occ(C(=O)NC3CCNCC3)c1c2O	1
Cc1oc2c(N)c3c(c(N)c2c1C(=O)N1CC[C@H](N)C1)C(=O)c1ccccc1C3=O	0.7
O=C1c2ccccc2C(=O)c2c1c(O)c1occ(C(=O)NC3CCNC3)c1c2O (racemic)	1.3

Tested on: MKN-45
Assay: Induction of apoptosis in human MKN45 cells after 24 hrs by Annexin V-FITC staining based flow cytometry
Assay type: functional, cell-based
Settings: not given

Compound	Activity
Cc1oc2c(O)c3c(c(O)c2c1C(=O)N1CC[C@H](N)C1)C(=O)c1ccccc1C3=O	Dose-dependent effect

Tested on: HCT-116
Assay: Antiproliferative activity against human HCT116 cells after 72 hrs by MTT assay
Assay type: functional, cell-based
Settings: HCT-116, 72 h

Compound	pIC50
Cc1oc2c(O)c3c(c(O)c2c1C(=O)N1CC[C@H](N)C1)C(=O)c1ccccc1C3=O	5.92
Cc1oc2c(Cl)c3c(c(Cl)c2c1C(=O)N1CC[C@H](N)C1)C(=O)c1ccccc1C3=O	5.35
COc1c2c(c(OC)c3c(C(=O)N4CC[C@H](N)C4)c(C)oc13)C(=O)c1ccccc1C2=O	4.39
NC1CCCN(C(=O)c2coc3c(O)c4c(c(O)c23)C(=O)c2ccccc2C4=O)C1 (racemic)	5.52
O=C1c2ccccc2C(=O)c2c1c(O)c1occ(C(=O)NC3CCNCC3)c1c2O	5.38
Cc1oc2c(N)c3c(c(N)c2c1C(=O)N1CC[C@H](N)C1)C(=O)c1ccccc1C3=O	5.12
O=C1c2ccccc2C(=O)c2c1c(O)c1occ(C(=O)NC3CCNC3)c1c2O (racemic)	6.10

Tested on: TMK-1
Assay: Induction of apoptosis in human TMK1 cells after 24 hrs by Annexin V-FITC staining based flow cytometry
Assay type: functional, cell-based
Settings: not given

Compound	Activity
Cc1oc2c(O)c3c(c(O)c2c1C(=O)N1CC[C@H](N)C1)C(=O)c1ccccc1C3=O	Dose-dependent effect

Tested on: TMK-1
Assay: Induction of ROS generation in human TMK1 cells at 0.1 to 1 uM after 30 mins by H2DCFDA staining based flow cytometry
Assay type: functional, cell-based
Settings: not given

Compound	Activity
Cc1oc2c(O)c3c(c(O)c2c1C(=O)N1CC[C@H](N)C1)C(=O)c1ccccc1C3=O	Active

Tested on: HCT-116
Assay: Antiproliferative activity against p53 knockout human HCT116 cells after 72 hrs by MTT assay
Assay type: functional, cell-based
Settings: HCT-116, 72 h

Compound	pIC50
Cc1oc2c(O)c3c(c(O)c2c1C(=O)N1CC[C@H](N)C1)C(=O)c1ccccc1C3=O	5.89
Cc1oc2c(Cl)c3c(c(Cl)c2c1C(=O)N1CC[C@H](N)C1)C(=O)c1ccccc1C3=O	5.40
COc1c2c(c(OC)c3c(C(=O)N4CC[C@H](N)C4)c(C)oc13)C(=O)c1ccccc1C2=O	4.30
NC1CCCN(C(=O)c2coc3c(O)c4c(c(O)c23)C(=O)c2ccccc2C4=O)C1 (racemic)	5.60
O=C1c2ccccc2C(=O)c2c1c(O)c1occ(C(=O)NC3CCNCC3)c1c2O	5.40
Cc1oc2c(N)c3c(c(N)c2c1C(=O)N1CC[C@H](N)C1)C(=O)c1ccccc1C3=O	5.27
O=C1c2ccccc2C(=O)c2c1c(O)c1occ(C(=O)NC3CCNC3)c1c2O (racemic)	6.00

Tested on: L1210
Assay: Antiproliferative activity against mouse L1210 cells after 48 hrs by MTT assay
Assay type: functional, cell-based
Settings: L1210, 48 h

Compound	pIC50
Cc1oc2c(O)c3c(c(O)c2c1C(=O)N1CC[C@H](N)C1)C(=O)c1ccccc1C3=O	6.22
Cc1oc2c(Cl)c3c(c(Cl)c2c1C(=O)N1CC[C@H](N)C1)C(=O)c1ccccc1C3=O	5.82
COc1c2c(c(OC)c3c(C(=O)N4CC[C@H](N)C4)c(C)oc13)C(=O)c1ccccc1C2=O	4.70
NC1CCCN(C(=O)c2coc3c(O)c4c(c(O)c23)C(=O)c2ccccc2C4=O)C1 (racemic)	5.70
O=C1c2ccccc2C(=O)c2c1c(O)c1occ(C(=O)NC3CCNCC3)c1c2O	6.05
Cc1oc2c(N)c3c(c(N)c2c1C(=O)N1CC[C@H](N)C1)C(=O)c1ccccc1C3=O	5.51
O=C1c2ccccc2C(=O)c2c1c(O)c1occ(C(=O)NC3CCNC3)c1c2O (racemic)	6.00

Molecular target: T1, DNA topoisomerase 1 (Homo sapiens) (UniProt P11387)
T1 sequence (whole entry): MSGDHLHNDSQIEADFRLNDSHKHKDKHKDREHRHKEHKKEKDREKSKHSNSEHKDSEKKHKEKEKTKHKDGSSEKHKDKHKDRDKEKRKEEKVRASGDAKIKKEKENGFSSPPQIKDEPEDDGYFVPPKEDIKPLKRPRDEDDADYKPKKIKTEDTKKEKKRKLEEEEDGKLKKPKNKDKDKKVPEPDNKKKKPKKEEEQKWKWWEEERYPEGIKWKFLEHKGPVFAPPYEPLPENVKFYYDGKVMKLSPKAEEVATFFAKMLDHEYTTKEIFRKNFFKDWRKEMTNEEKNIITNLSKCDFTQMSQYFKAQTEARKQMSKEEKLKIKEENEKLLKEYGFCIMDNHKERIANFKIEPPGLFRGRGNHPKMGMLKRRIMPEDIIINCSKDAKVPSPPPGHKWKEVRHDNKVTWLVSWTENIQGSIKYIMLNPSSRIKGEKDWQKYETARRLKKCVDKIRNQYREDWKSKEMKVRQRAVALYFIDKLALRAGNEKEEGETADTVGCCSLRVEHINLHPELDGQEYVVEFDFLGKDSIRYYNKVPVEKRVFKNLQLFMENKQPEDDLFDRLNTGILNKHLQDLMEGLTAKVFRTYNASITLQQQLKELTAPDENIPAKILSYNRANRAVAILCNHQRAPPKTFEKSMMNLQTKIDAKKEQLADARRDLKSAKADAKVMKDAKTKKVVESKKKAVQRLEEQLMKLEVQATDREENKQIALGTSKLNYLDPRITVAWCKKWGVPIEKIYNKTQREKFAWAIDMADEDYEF
Assay: Inhibition of human topoisomerase-1 at 1 to 30 uM using supercoiled pBR322 DNA as substrate after 30 mins by agarose gel electrophoresis method
Settings: not given

Compound	inhibition
Cc1oc2c(O)c3c(c(O)c2c1C(=O)N1CC[C@H](N)C1)C(=O)c1ccccc1C3=O	Active

Tested on: MKN-45
Assay: Induction of ROS generation in human MKN45 cells at 0.1 to 1 uM after 30 mins by H2DCFDA staining based flow cytometry
Assay type: functional, cell-based
Settings: not given

Compound	Activity
Cc1oc2c(O)c3c(c(O)c2c1C(=O)N1CC[C@H](N)C1)C(=O)c1ccccc1C3=O	Active

Tested on: CCRF-CEM
Assay: Antiproliferative activity against human CEM cells after 72 hrs by MTT assay
Assay type: functional, cell-based
Settings: not given

Compound	pIC50
Cc1oc2c(O)c3c(c(O)c2c1C(=O)N1CC[C@H](N)C1)C(=O)c1ccccc1C3=O	6.30
Cc1oc2c(Cl)c3c(c(Cl)c2c1C(=O)N1CC[C@H](N)C1)C(=O)c1ccccc1C3=O	5.46
COc1c2c(c(OC)c3c(C(=O)N4CC[C@H](N)C4)c(C)oc13)C(=O)c1ccccc1C2=O	4.63
NC1CCCN(C(=O)c2coc3c(O)c4c(c(O)c23)C(=O)c2ccccc2C4=O)C1 (racemic)	5.40
O=C1c2ccccc2C(=O)c2c1c(O)c1occ(C(=O)NC3CCNCC3)c1c2O	6.10
Cc1oc2c(N)c3c(c(N)c2c1C(=O)N1CC[C@H](N)C1)C(=O)c1ccccc1C3=O	5.40
O=C1c2ccccc2C(=O)c2c1c(O)c1occ(C(=O)NC3CCNC3)c1c2O (racemic)	6.00

Tested on: not listed separately
Assay: Resistance index, ratio of IC50 for human K562/4 cells to IC50 for human K562 cells
Assay type: functional
Settings: not given

Compound	Ratio IC50
Cc1oc2c(O)c3c(c(O)c2c1C(=O)N1CC[C@H](N)C1)C(=O)c1ccccc1C3=O	1.5
Cc1oc2c(Cl)c3c(c(Cl)c2c1C(=O)N1CC[C@H](N)C1)C(=O)c1ccccc1C3=O	1.4
COc1c2c(c(OC)c3c(C(=O)N4CC[C@H](N)C4)c(C)oc13)C(=O)c1ccccc1C2=O	1.4
NC1CCCN(C(=O)c2coc3c(O)c4c(c(O)c23)C(=O)c2ccccc2C4=O)C1 (racemic)	2
O=C1c2ccccc2C(=O)c2c1c(O)c1occ(C(=O)NC3CCNCC3)c1c2O	2.3
Cc1oc2c(N)c3c(c(N)c2c1C(=O)N1CC[C@H](N)C1)C(=O)c1ccccc1C3=O	0.9
O=C1c2ccccc2C(=O)c2c1c(O)c1occ(C(=O)NC3CCNC3)c1c2O (racemic)	5

Tested on: TMK-1
Assay: Induction of apoptosis in human TMK1 cells at 1 uM after 24 hrs by Annexin V-FITC staining based flow cytometry relative to control
Assay type: functional
Settings: not given

Compound	Activity
Cc1oc2c(O)c3c(c(O)c2c1C(=O)N1CC[C@H](N)C1)C(=O)c1ccccc1C3=O	60 - 90%

Tested on: MKN-45
Assay: Induction of apoptosis in human MKN45 cells at 1 uM after 24 hrs by Annexin V-FITC staining based flow cytometry relative to control
Assay type: functional
Settings: not given

Compound	Activity
Cc1oc2c(O)c3c(c(O)c2c1C(=O)N1CC[C@H](N)C1)C(=O)c1ccccc1C3=O	60 - 90%
